Experimental data reported in PMC5955599, “The HTLV-1 gp21 fusion peptide inhibits antigen specific T-cell activation in-vitro and in mice” (PLoS Pathogens, 2018).

Tested on: MOG35-55–antigen specific T-cells
Assay: Cytokine secretion from activated antigen-specific T-cells (ELISA)
Assay type: cell-based, mouse (C57Bl/6J)
Conditions: peptide at 10μM, APC-activated T-cells, media 24 hours following activation, n = 12
Protocol: Fig 2 Modulation of Th1/Th2 gene expression and cytokine secretion from activated T-cells by the HTLV FP. MOG35-55–antigen specific T-cells were activated by irradiated MOG35-55 presenting APCs, in the presence of the HTLV FP at 10μM. (A) Total RNA was isolated 24 hours following activation and mRNA expression levels were determined by qRT-PCR. The values of each gene were normalized to Rpl13a as a housekeeping control. The HTLV FP reduces mRNA expression of Th1 specific genes (IFNG, LTA, and STAT4) and elevates mRNA expression of Th2 specific genes (IL4 and IL10). The data is presented as arbitrary units. n≥3. (B) Media was collected 24 hours following activation and secretion of cytokines was measured by ELISA assay. IFN-γ secretion is inhibited, IL4 secretion is elevated and TNFα is not affected by the HTLV FP. n = 12. One-way ANOVA was used for statistical analysis. *P<0.05; **P<0.01;***P<0.001.
Antigen-specific T-cells were plated onto round 96-well plates in medium containing RPMI-1640 supplemented with 2.5% fetal calf serum (FCS), 100 U/ml penicillin, 100 μg/ml streptomycin, 50μM β-mercaptoethanol, and 2mM L-glutamine. […] In addition, the relevant peptide was added. Each treatment was made with quadruplicate. Analysis of IFN-γ, IL-4 and TNFα secretion was performed by ELISA 24 hours after cell activation according to standard protocols from R&D systems.

AVPVAVWLVSALAMGAGVAGGITGSMSLASGKS [HTLV FP, gp21 fusion peptide of HTLV-1, MT-2 isolate]
IFN-γ secretion: inhibited both T-cell proliferation and IFN-γ secretion with higher potency than the HTLV Scr | IL4 secretion: elevated IL4 secretion | TNF-α secretion: had no effect on TNF-α secretion
